Source: article PMC7927014, “Novel Small Molecule Hsp90/Cdc37 Interface Inhibitors Indirectly Target K-Ras-Signaling” (Cancers, 2021)
Where a name gives a salt, the structure may show the parent alone.

How the values were obtained:
Hsp90/Cdc37 [1] = test: FIMM screening in split Renilla luciferase assay with hypomorphic NRL-Hsp90 construct, 20 μM; type: biochemical; details: for normalized RLU (FIMM Screening-2, scaffold based) / normalized RLU (FIMM Screening-1): DMSO = 1.00; for Average RLU (FIMM Screening-2, scaffold based) / Average RLU (FIMM Screening-1): mean of 3 wells; for Average RLU (FIMM Screening-2, scaffold based): DMSO 51006; for Average RLU (FIMM Screening-1): DMSO 50019
Procedure: (§1) In the second in silico screening of the FIMM database, we employed the four identified chemical scaffolds (Figure S2B) for the visual inspection of the FIMM compound library. […] All of the purchased compounds were validated in vitro at 20 μM using the split Renilla luciferase assay.
(§2) The Hsp90/Cdc37 split Renilla luciferase assay using the full length Hsp90 for the compound screening was described previously. […] After 48 h, the cells were trypsinized and washed with PBS. The harvested cells were lysed in 1 mL of the 1x lysis buffer provided in the Renilla Luciferase Reporter Assay System Kit from Promega (cat. E2820), and were incubated on ice for 10 min. The cell lysates were then cleared by centrifugation at 13,000× g for 1 min. […] After this, the screening/test compounds or DMSO—as indicated—were added to each well. In total, 5 µL NRL-Hsp90- or NRL-N-Hsp90-lysate was added to each well, one row at a time. Subsequently, the plate was incubated for 5 min at room temperature (RT). […] Just before the reading, 20 µL assay buffer containing 2× Renilla luciferase substrate (coelenterazine) was added. For the FIMM screening, sample wells were read on a PHERAstar plate reader (BMG LABTECH) at a gain level of 4000, after 10 s shaking, using a hypomorph of NRL-Hsp90. For the subsequent validations of the compounds, sample wells with the above-described assay constructs were read using a synergy H1 Hybrid Multi-Mode reader (BioTek) in the luminescence detection mode, as described previously in detail.

Hsp90/Cdc37 [2] = target: T1, Hsp90/Cdc37 (Homo sapiens, UniProt P07900); test: Hsp90/Cdc37 split Renilla luciferase assay, full length Hsp90 (cell lysate; IC50 and 20 μM validation); type: biochemical; details: for IC50: full length Hsp90, split Renilla luciferase assay, cell lysate; for normalized RLU / Average RLU: MolPort Screening-3, tested concentration of drugs 20 μM; for normalized RLU: RLU normalized to DMSO (=1.00); for Average RLU: average of 3 wells (DMSO 248028)
T1 construct: The Hsp90/Cdc37 split Renilla luciferase assay using the full length Hsp90 for the compound screening was described previously; expressed in transfected cells; host or cells: HEK293 EBNA cells, cleared lysates
Procedure: as §1, §2

N-Hsp90/Cdc37 = target: T2, N-Hsp90/Cdc37 (Homo sapiens, UniProt P07900); test: N-Hsp90/Cdc37 split Renilla luciferase assay (N-terminal Hsp90 fragment, residues 1-223); type: biochemical; details: cell lysate
T2 construct: only the N-terminal ATP-ase domain of Hsp90 (N-Hsp90, residues 1-223); expressed in transfected cells; host or cells: HEK293 EBNA cells, cleared lysates
Procedure: as §2

MDA-MB-231 cells = test: Tumorosphere assay (low adhesion, serum-free 3D spheroid culture); type: cell-based; details: MDA-MB-231, 20 μM, 72 h
Procedure: (§3) Per well, 2000 cells were seeded in flat bottom 96-well suspension culture plates (cat. no. 655185, Cellstar, Greiner Bio-One) in 100 µL DMEM or RPMI media containing 1× B27 (cat. no. 17504044, Gibco, Thermo Fisher Scientific), 25 ng/mL EGF (cat. no. E9644, Sigma-Aldrich), and 25 ng/mL FGF (cat. no. RP-8628, Thermo Fisher Scientific), 20% MethoCult H4100 (cat. no. 04100, […] Technologies). After 2 days, 50 µL media containing 0.3% DMSO or 3× the concentration of the indicated compounds were added to the wells in a 1:2 dilution-series, starting at 100 µM. After 72 h of treatment, 10% (v/v) alamarBlue reagent (cat. no. DAL1100, Thermo Fisher Scientific) was added to each well. Then, the fluorescence intensity (excitation 560 nm and emission 590 nm) was measured after 4 h using a H1 Hybrid Multi-Mode reader (BioTek).

HCC-44 cells = test: as above; type: cell-based; details: HCC-44, 20 μM, 72 h
Procedure: as §3

MIA PaCa-2 cells = test: as above; type: cell-based; details: MIA PaCa-2, 20 μM, 72 h
Procedure: as §3

SK-BR-3 cells = test: as above; type: cell-based; details: SK-BR-3, 20 μM, 72 h
Procedure: as §3

Hsp90α (N-terminal) = target: T3, Hsp90α (N-terminal) (Homo sapiens, UniProt P07900); test: Hsp90 N-terminal ATP-binding site competition assay (FITC-geldanamycin fluorescence polarization); details: 20 μM compound
T3 construct: purchased BPS Bioscience 50298
Procedure: The reaction was initiated by adding 35 ng/μL purified recombinant Hsp90α, and was incubated at RT with slow shaking for 2 h. All of the reactions were performed in a black, low binding NUNC microtiter plate, included in the kit, and the total reaction volume was 50 μL. The enzyme control was measured without the test compound, and the enzyme background control was measured without the test compound or Hsp90α. […] All of the controls and the blank contained 10% DMSO, as did all of the samples of the test compounds. All of the samples were analyzed as duplicates. […] The blank value was subtracted from all of the other values, and the fluorescence polarization was determined as:(1) mP = ((III − I⊥)/(III+ I⊥)) × 1000 where III is the intensity of the parallel, and I┴ the intensity of the perpendicular polarized light.

Compound | IC50 (Hsp90/Cdc37 [2]) | normalized RLU (FIMM Screening-1) (Hsp90/Cdc37 [1]) | Average RLU (FIMM Screening-1) (Hsp90/Cdc37 [1]) | IC50 (N-Hsp90/Cdc37) | further results
N=C(N)SCc1cc(=O)[nH]c(=O)[nH]1 [SC5, {[(2,6-dioxo-1,2,3,6-tetrahydropyrimidin-4-yl)methyl]sulfanyl}methanimidamide] |  |  |  |  | normalized RLU (FIMM Screening-2, scaffold based) (Hsp90/Cdc37 [1]): 0.39; Average RLU (FIMM Screening-2, scaffold based) (Hsp90/Cdc37 [1]): 19772 RLU
O=C(O)c1cc(S(=O)(=O)Nc2cccc(Cl)c2)ccc1O [SC22, 5-[(3-chlorophenyl)sulfamoyl]-2-hydroxybenzoic acid] |  |  |  |  | normalized RLU (FIMM Screening-2, scaffold based) (Hsp90/Cdc37 [1]): 0.73; Average RLU (FIMM Screening-2, scaffold based) (Hsp90/Cdc37 [1]): 37332 RLU
O=C(O[C@@H]1Cc2c(O)cc(O)cc2O[C@@H]1c1cc(O)c(=O)c2c(O)c(O)cc([C@H]3Oc4cc(O)cc(O)c4C[C@H]3O)c2c1)c1cc(O)c(O)c(O)c1 [compound 8, Theaflavin monogallates] | 14.1 µM | 0.25 | 12688 RLU |  | 
O=C(O[C@@H]1Cc2c(O)cc(O)cc2O[C@@H]1c1ccc(O)c(O)c1)c1cc(O)c(O)c(O)c1 [M15, (2R,3R)-2-(3,4-dihydroxyphenyl)-5,7-dihydroxy-3,4-dihydro-2H-1-benzopyran-3-yl 3,4,5-trihydroxybenzoate (epicatechin gallate)] | 28 ± 4 µM |  |  | 4.8 ± 0.7 µM | normalized RLU (Hsp90/Cdc37 [2]): 0.33; Average RLU (Hsp90/Cdc37 [2]): 80961 RLU
O=C(O[C@@H]1Cc2c(O)cc(O)cc2O[C@@H]1c1cc(O)c(=O)c2c(O)c(O)cc([C@H]3Oc4cc(O)cc(O)c4C[C@H]3OC(=O)c3cc(O)c(O)c(O)c3)c2c1)c1cc(O)c(O)c(O)c1 [compound 2, Theaflavin 3,3-digallate] | 75 ± 26 µM | 0.12 | 5883 RLU | 81 ± 16 µM | 
Enamine compound T6605315 [compound 5] |  | 0.57 | 28274 RLU |  | 
O=C(O[C@@H]1Cc2c(O)cc(O)cc2O[C@@H]1c1cc(O)c(O)c(O)c1)c1cc(O)c(O)c(O)c1 [compound 3, Epigallocatechin gallate] | 88 ± 23 µM | 0.45 | 22619 RLU | 57 ± 14 µM | 
Enamine compound T5807719 [compound 4] |  | 0.48 | 24009 RLU |  | 
O=C(CSc1nc2ccccc2s1)c1ccc(O)c(O)c1 [SC9, 2-(1,3-benzothiazol-2-ylsulfanyl)-1-(3,4-dihydroxyphenyl)ethan-1-one] | 72 ± 10 µM |  |  | 64 ± 9 µM | normalized RLU (FIMM Screening-2, scaffold based) (Hsp90/Cdc37 [1]): 0.64; Average RLU (FIMM Screening-2, scaffold based) (Hsp90/Cdc37 [1]): 32657 RLU
Cc1cc(OCC(=O)Nc2ccccc2C(=O)O)cc(C)c1Cl [×1127, 2-[2-(4-chloro-3,5-dimethylphenoxy)acetamido]benzoic acid] | 41 ± 10 µM |  |  | 11 ± 1 µM | normalized RLU (FIMM Screening-2, scaffold based) (Hsp90/Cdc37 [1]): 0.66; Average RLU (FIMM Screening-2, scaffold based) (Hsp90/Cdc37 [1]): 33660 RLU
O=c1c(O)c(-c2ccc(O)c(O)c2)oc2cc(O)cc(O)c12 [×1742, 2-(3,4-dihydroxyphenyl)-3,5,7-trihydroxy-4H-chromen-4-one dihydrate (quercetin dihydrate)] |  |  |  |  | normalized RLU (Hsp90/Cdc37 [2]): 0.40; Average RLU (Hsp90/Cdc37 [2]): 100349 RLU; effect on spheroid formation (MDA-MB-231 cells): significantly increased; effect on spheroid formation (HCC-44 cells): did not decrease; effect on spheroid formation (MIA PaCa-2 cells): significantly increased; effect on spheroid formation (SK-BR-3 cells): did not decrease; competition with FITC-geldanamycin (ATP-pocket binding, polarization signal) (Hsp90α (N-terminal)): None of these four compounds displaced
O=c1c(O)cc([C@H]2Oc3cc(O)cc(O)c3C[C@H]2O)cc2c([C@H]3Oc4cc(O)cc(O)c4C[C@H]3O)cc(O)c(O)c12 [compound 1, Theaflavin] | 29.3 µM | 0.25 | 12261 RLU |  | 
NC(CSS(=O)(=O)O)=NCCC12CC3CC(CC(O)(C3)C1)C2 [×7648, 1-[2-[(1-amino-2-sulfosulfanylethylidene)amino]ethyl]-3-hydroxyadamantane] | 18 ± 2 µM | 0.22 | 10978 RLU | 14 ± 4 µM | 
Cc1ccc(Nc2ccc(C(=O)O)cc2N)cc1 [compound 7, 3-amino-4-(4-toluidino)benzoic acid] | 177 ± 31 µM | 0.56 | 28120 RLU | 322 ± 50 µM | 
O=C(CSS(=O)(=O)O)Nc1cccc(C(F)(F)F)c1 [×1625, [({[3-(trifluoromethyl)phenyl]carbamoyl}methyl)sulfanyl]sulfonate] | 41 ± 8 µM |  |  | 94 ± 3 µM | normalized RLU (Hsp90/Cdc37 [2]): 0.47; Average RLU (Hsp90/Cdc37 [2]): 117361 RLU; effect on spheroid formation (MDA-MB-231 cells): did not decrease; effect on spheroid formation (HCC-44 cells): did not decrease; effect on spheroid formation (MIA PaCa-2 cells): did not decrease; effect on spheroid formation (SK-BR-3 cells): did not decrease; competition with FITC-geldanamycin (ATP-pocket binding, polarization signal) (Hsp90α (N-terminal)): None of these four compounds displaced
NC[C@@H]1O[C@H](O[C@H]2[C@@H](O)[C@H](O[C@@H]3[C@@H](O)[C@H](N)C[C@H](N)[C@H]3O[C@H]3O[C@H](CO)[C@@H](O)[C@H](O)[C@H]3N)O[C@@H]2CO)[C@H](N)[C@@H](O)[C@@H]1O [compound 6, Paromomycin sulfate, reference compound] |  | 0.67 | 33633 RLU |  | 
